Experimental data: paper PMC6271122, “Effects of Fructus Psoraleae Extract on the Intestinal Absorption Kinetics of Geniposide and Geniposidic Acid in Rat” (Molecules, 2014)
Read-outs that look alike come from different tables or passages of the source.

Legend:
[1] = Effect of physical adsorption of the peristaltic pump; format: physicochemical; conditions: for Physical Adsorption RSD (%): original vs 3 h concentration, 37 °C; for Concentration (mg/L) 3 h: perfusion solution after 3 h in water bath at 37 °C, compared with original concentration
Method: The perfusion solutions with known drug concentrations were incubated for 3 h in a water bath at 37 °C. The concentrations of GP and GPA in the resulting solution were determined and compared with the original concentrations.

[2] = cited from earlier work
[3] = system: β-D-glucosidase in rat liver homogenate; set-up: method as in PMID 7735197; conditions: cited from earlier work
[4] = system: β-D-glucosidase of a human intestinal anaerobe, Eubacterium sp.A-44; conditions: cited from earlier work
[5] = In situ intestinal perfusion of rat duodenum (UPLC of perfusate); format: in vivo; conditions: for Cumulative Absorption Rate (%) 1 h (mean ± SD) / Cumulative Absorption Rate (%) 3 h (mean ± SD): rat duodenum, n = 6
Method: All animal experimental procedures were in compliance with the National Institutes of Health Guide for Care and Use of Laboratory Animals. The in situ intestinal perfusion experiment was performed by using male Sprague-Dawley rats (240 ± 20 g) which obtained from Beijing Vital River Laboratory Animal Technology Co., Ltd. (SCXK 2012-0001, Beijing, China). Animals were fasted overnight (12 h) with free access to water before being allocated to different experimental groups at random. After the abdominal cavity was opened, an intestinal loop (length, 10 cm) was made by cannulation with silicone tube (i.d., 3 mm) at the duodenum which was selected 1 cm away from pylorus. The intestinal contents were removed by infusion of normal saline solution. The 25 mL perfusion solution was precisely measured and stored in the measuring cylinder. At the start of the experiment, the perfusion solutions perfused through the intestinal segment at a flow rate of 5 mL/min for 10 min by using a peristaltic pump (Petro Gas Ausrüstungen, Berlin, Germany). On reaching a steady state, changed the flow rate to 2.5 mL/min, and the intestinal perfusion samples (150 µL × 3) were collected at 30 min intervals for the duration of 3 h (0, 0.5, 1, 1.5, 2, 2.5, 3 h) with a pipette and put into shell tube. After each collection, the volumes (V1) of the perfusion solutions were recorded precisely and 450 µL blank K-R solution was added into the perfusion solution to keep the volume of the perfusion solution constant. After 3 h, the intestinal perfusion solution in peristaltic pump and the duodenum was exhausted, the volume of which was recorded as V2. All the samples were assayed by UPLC after preparation. Finally, the curves of time and the residual quantities (lnx) of GP and GPA in intestinal solution during the absorption in the duodenum for 3 h were obtained (Figure 2).The residual quantities of GP and GPA in the perfusion solution were calculated using the following equation: Xn = CnVn + 0.45 [drawing 1] , Xn is the residual quantities of GP or GPA in intestinal solution, Ci and Cn is the concentration of the GP or GPA, Vn is the volume of the intestinal perfusion solution (Vn = V1 + V2). Cumulative absorption rates were compared for 1 h and 3 h between the single and compatibility groups. The equation was as follows: 1 h/3 h cumulative absorption rate [drawing 2] .
Samples were prepared using a protein precipitation method at a volume ratio of 1:1 (v/v). The perfusion sample (150 µL) was mixed with CH3OH (150 µL), and then vortexed for 1 min. After 10 min for the precipitation, pure water (160 µL) was added to 40 µL of the above mixture. Then the sample was vortexed for 1 min and centr ifuged at 14,000 rpm for 10 min. The supernatant was directly used for UPLC analysis.
After sample preparation, 3 µL of the supernatant was injected into the UPLC system, and separated on a Waters BEH C18 column (2.1 × 50 mm, 1.7 µm). The column temperature was set at 25 °C. The mobile phase was consisted of water with 0.2% acetic acid (A) and acetonitrile (B) at a flow rate of 0.35 mL/min. The mobile phase operated in the following gradient for GP: 0–3 min: 15%–50% B, 3–3.5 min: 50%–90% B, 3.5–4 min: 90%–50% B, 4–5 min: 50%–15% B; GPA: 0–1 min: 5%–10% B, 1–2 min: 10%–20% B, 2–3 min: 20%–50% B, 3–4 min: 50%–10% B, 4–5 min: 10%–5% B. The detection wavelength was 254 nm.

[6] = system: NO production; set-up: method as in PMID 22181069; conditions: protection from renal injury; cited from earlier work
[7] = Stability in K-R solution; format: physicochemical; conditions: 24 h, room temperature; for Stability, RSD (%): K-R solution, concentrations at 0-24 h compared
Method: GP and GPA were stable in K-R solution at room temperature for 24 h. The concentrations at 0, 1, 2, 3, 5, 6, 8, 10 and 24 h were determined and compared.
All the components were dissolved in the K-R solution to imitate the physiological conditions of the intestinal tract. K-R nutrient solution included: NaCl 7.8 g, KCl 0.35 g, CaCl2 0.37 g, NaHCO3 1.37 g, NaH2PO4 0.02 g, MgCl2 0.02 g, glucose 2.22 g. They were dissolved in distilled water to 1000 mL.

[8] = Stability in blank intestinal perfusion solution; format: physicochemical; conditions: 3 h, 50 mg/L; for Stability in blank intestinal perfusion solution: 37 °C; for Stability, RSD (%): Blank intestinal perfusion solution, 37 °C water bath, concentrations at 0, 0.25, 0.5, 1, 2 and 3 h compared
Method: A total of 50 mg/L GP and GPA perfusion solution (dissolved in blank intestinal perfusion solution) was incubated in a water bath at 37 °C for 3 h. The concentrations at 0, 0.25, 0.5, 1, 2 and 3 h were determined and compared.
The blank intestinal perfusion solution was prepared by a process consistent with the in situ intestinal perfusion experiment (as follows) except for the vacancy of GP or other components in the K-R solution.

[9] = Compatibility group (mixed with FPE)
[10] = Single group, 80 mg/L perfusion solution

| Intestinal absorption at 216 mg/L ([5]; GPA 216 mg/L in intestinal perfusion solution) | Compound | Physical Adsorption RSD (%) [1] [%] | Concentration (mg/L) 3 h [1] [mg/L] | Absorption in the duodenum by concentration ([2]; GP at 78 mg/L compared with other concentrations) | Absorption in the duodenum versus other parts of the intestinal tract [2] | Hydrolysis by β-D-glucosidase [3] | Hydrolysis by β-D-glucosidase ([4]; human intestinal anaerobe Eubacterium sp.A-44) | Cumulative Absorption Rate (%) 1 h (mean ± SD) [5, 9] [%] | Cumulative Absorption Rate (%) 3 h (mean ± SD) [5, 9] [%] | Cumulative Absorption Rate (%) 1 h (mean ± SD) [5, 10] [%] | Cumulative Absorption Rate (%) 3 h (mean ± SD) [5, 10] [%] | Effect on NO production [6] | Stability, RSD (%) [7] [%] | Stability in K-R solution [7] | Stability in blank intestinal perfusion solution [8] | Stability, RSD (%) [8] [%] | Hydrolysis by β-D-glucosidase [4] |
| --- | --- | --- | --- | --- | --- | --- | --- | --- | --- | --- | --- | --- | --- | --- | --- | --- | --- |
|  | COC(=O)C1=CO[C@@H](O[C@@H]2O[C@H](CO)[C@@H](O)[C@H](O)[C@H]2O)[C@@H]2C(CO)=CC[C@H]12 [GP, Geniposide] | 0.57 | 92.34 | best absorption | better than other parts of the intestinal tract | cannot be hydrolyzed | can be hydrolyzed | 0.139 ± 0.104 | 0.120 ± 0.063 | 0.059 ± 0.018 | 0.081 ± 0.017 | inhibited NO production | 1.32 | stable | stable | 3.27 |  |
| poor absorption | O=C(O)C1=CO[C@@H](O[C@@H]2O[C@H](CO)[C@@H](O)[C@H](O)[C@H]2O)[C@@H]2C(CO)=CC[C@H]12 [GPA, geniposidic acid] | 1.32 | 114.68 |  |  |  |  | 0.075 ± 0.015 | 0.105 ± 0.028 | 0.063 ± 0.040 | 0.136 ± 0.046 |  | 2.01 | stable | stable | 0.45 | can hydolyse |
